The record followed here is article PMC8304761, “Development of an Androgen Receptor Inhibitor Targeting the N-Terminal Domain of Androgen Receptor for Treatment of Castration Resistant Prostate Cancer” (Cancers, 2021).

Like-named read-outs stand apart in the source and are kept apart here. A value given as a limit tells only on which side of the number the result lay.

In data set [1] the test system is prostate specific antigen (PSA). Briefly: Secreted PSA levels in LNCaP cells. The data set is classed as cell-based. To be noted: Homo sapiens, LNCaP; Table 1; read-out: PSA IC50. An excerpt:
Next, we tested the activity of VPC-220010 against full length AR using an AR-eGFP transcription assay in LNCaP cells. […] To further validate VPC-220010 as an AR inhibitor, we evaluated its ability to reduce the production of endogenous prostate specific antigen (PSA) in PCa cell lines. PSA is an AR-regulated serine protease and is widely used as a biomarker for PCa.

The target in another data set is T1, ARV7 (Homo sapiens, UniProt P10275).
T1 sequence (P10275 1-644 isoform P10275-3): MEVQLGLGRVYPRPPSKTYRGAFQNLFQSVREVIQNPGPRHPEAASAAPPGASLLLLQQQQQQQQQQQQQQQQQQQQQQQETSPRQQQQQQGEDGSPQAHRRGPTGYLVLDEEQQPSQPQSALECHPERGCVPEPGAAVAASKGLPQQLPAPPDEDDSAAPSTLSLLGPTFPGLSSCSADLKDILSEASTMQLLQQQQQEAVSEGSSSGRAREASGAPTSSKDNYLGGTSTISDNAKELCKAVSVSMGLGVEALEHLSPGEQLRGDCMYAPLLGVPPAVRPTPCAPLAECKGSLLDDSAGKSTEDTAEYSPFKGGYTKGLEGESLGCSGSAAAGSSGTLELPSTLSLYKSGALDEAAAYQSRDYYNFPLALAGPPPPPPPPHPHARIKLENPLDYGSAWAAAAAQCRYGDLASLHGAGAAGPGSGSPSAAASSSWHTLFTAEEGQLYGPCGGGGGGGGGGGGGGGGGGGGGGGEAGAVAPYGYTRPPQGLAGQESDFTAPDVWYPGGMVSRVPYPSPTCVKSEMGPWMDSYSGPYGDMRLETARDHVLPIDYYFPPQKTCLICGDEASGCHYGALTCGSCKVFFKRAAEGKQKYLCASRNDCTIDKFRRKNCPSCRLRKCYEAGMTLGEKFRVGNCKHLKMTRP

In another data set the target is T2, full-length AR (Homo sapiens, UniProt P10275, T878A).
T2 construct: against full length AR using an AR-eGFP transcription assay in LNCaP cells; endogenous in cells; host or cells: LNCaP (LN-ARR2PB-eGFP reporter line for A1; parental LNCaP for RIME)
T2 sequence (P10275 1-920 T878A): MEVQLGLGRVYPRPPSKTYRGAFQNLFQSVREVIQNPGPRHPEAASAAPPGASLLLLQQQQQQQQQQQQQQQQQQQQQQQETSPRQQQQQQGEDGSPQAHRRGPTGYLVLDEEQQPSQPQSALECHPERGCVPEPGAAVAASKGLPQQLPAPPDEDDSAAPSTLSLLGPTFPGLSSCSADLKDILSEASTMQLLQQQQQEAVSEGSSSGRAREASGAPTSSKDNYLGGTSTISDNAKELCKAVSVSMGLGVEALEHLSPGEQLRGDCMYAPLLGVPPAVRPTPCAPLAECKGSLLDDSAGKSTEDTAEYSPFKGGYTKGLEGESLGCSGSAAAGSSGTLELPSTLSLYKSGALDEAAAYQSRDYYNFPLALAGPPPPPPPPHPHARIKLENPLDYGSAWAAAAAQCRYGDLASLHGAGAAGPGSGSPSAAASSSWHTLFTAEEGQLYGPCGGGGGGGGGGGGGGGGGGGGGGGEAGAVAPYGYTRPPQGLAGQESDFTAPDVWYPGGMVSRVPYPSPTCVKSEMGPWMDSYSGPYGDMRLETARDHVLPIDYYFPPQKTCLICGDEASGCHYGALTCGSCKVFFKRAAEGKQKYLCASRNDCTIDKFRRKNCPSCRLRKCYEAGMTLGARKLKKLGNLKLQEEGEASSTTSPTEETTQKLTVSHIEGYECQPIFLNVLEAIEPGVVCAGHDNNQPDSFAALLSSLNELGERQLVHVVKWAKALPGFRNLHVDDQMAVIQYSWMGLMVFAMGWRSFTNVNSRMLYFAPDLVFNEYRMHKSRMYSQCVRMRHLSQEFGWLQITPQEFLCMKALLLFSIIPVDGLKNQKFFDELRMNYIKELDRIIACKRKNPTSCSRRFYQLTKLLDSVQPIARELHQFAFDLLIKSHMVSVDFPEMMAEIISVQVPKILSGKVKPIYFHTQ
The data set is described as follows: AR fluorescent (eGFP) reporter assay in LN-ARR2PB-eGFP LNCaP cells. The data set is classed as cell-based. The method, then: AR fluorescent reporter assay: Stably transfected eGFP-expressing LNCaP human prostate cancer cells (LN-ARR2PB-eGFP) containing an androgen-responsive probasin-derived promoter (ARR2PB) were assayed, as previously described.
Next, we tested the activity of VPC-220010 against full length AR using an AR-eGFP transcription assay in LNCaP cells. […] PSA is an AR-regulated serine protease and is widely used as a biomarker for PCa.

The next data set can be described thus: Microsomal stability. In kind it is in vitro ADME, human. An excerpt: However, further medicinal chemistry optimization is needed to make this scaffold stable enough to proceed to potential preclinical studies. […] Study of VPC-220057 scaffold could lead to a VPC-220010- and VPC-220057-derivative that combines their best potency and stability. The corresponding efforts are under way.

Data set [2] concerns the target T3, progesterone receptor (PR) (Homo sapiens, UniProt P06401).
T3 sequence (P06401 1-933): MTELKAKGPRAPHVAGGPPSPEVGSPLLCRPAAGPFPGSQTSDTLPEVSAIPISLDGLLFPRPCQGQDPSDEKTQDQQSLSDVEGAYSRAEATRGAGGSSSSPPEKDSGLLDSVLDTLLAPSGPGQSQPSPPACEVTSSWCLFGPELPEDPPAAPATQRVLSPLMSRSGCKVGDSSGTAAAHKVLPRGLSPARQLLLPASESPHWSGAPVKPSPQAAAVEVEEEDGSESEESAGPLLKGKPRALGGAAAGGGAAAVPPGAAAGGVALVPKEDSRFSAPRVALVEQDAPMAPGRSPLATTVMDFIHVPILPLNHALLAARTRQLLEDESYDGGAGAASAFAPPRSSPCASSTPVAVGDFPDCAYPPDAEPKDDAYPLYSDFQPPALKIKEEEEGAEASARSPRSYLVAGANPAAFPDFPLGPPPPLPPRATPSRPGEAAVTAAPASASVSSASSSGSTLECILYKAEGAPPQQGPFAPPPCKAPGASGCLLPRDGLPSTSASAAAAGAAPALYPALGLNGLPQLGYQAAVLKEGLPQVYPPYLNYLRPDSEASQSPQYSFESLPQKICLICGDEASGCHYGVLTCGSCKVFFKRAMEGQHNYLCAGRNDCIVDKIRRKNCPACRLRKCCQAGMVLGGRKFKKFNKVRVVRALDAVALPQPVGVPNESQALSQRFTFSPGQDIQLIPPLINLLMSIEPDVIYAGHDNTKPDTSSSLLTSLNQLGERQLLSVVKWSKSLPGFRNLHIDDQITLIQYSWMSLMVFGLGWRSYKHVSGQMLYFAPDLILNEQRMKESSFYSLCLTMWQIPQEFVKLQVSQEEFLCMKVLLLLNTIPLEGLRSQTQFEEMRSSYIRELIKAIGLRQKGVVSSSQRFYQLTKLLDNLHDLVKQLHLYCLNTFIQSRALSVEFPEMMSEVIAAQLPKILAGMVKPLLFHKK
Briefly: Luciferase reporter transcription assay in PC3 cells, PR. To be noted: progesterone stimulated; 20 uM; Figure 4.

The target of data set [3] is T4, glucocorticoid receptor (GR) (Homo sapiens, UniProt P04150).
T4 sequence (P04150 1-777): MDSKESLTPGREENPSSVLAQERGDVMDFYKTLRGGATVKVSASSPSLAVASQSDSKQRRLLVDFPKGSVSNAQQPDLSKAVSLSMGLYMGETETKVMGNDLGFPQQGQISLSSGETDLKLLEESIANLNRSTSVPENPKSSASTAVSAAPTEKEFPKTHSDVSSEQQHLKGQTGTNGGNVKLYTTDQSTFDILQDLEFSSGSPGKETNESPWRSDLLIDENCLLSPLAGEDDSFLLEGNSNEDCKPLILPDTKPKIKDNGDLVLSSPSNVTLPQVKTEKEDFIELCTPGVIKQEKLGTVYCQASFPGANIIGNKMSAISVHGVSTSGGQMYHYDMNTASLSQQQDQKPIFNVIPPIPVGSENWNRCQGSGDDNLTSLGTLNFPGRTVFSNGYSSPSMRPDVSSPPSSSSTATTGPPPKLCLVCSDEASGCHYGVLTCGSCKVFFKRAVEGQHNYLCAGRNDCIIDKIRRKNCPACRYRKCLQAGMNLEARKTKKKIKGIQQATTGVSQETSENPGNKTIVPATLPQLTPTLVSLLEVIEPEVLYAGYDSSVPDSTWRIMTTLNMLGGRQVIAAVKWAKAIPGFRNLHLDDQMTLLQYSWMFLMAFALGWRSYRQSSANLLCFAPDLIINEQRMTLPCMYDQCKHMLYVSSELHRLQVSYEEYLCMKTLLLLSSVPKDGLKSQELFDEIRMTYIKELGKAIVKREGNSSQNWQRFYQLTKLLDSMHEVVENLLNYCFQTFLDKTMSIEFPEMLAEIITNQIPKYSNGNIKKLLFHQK
The data set is described as follows: Luciferase reporter transcription assay in PC3 cells, GR. To be noted: dexamethasone stimulated; 20 uM; Figure 4.

The test system of another data set is LNCaP cells. The data set is described as follows: Proliferation assay (PrestoBlue), LNCaP. The data set is classed as cell-based. To be noted: Homo sapiens, 72 h, R1881, Figure 2C, read-out: IC50, viability of LNCaP cells. The method, then:
(§1) Proliferation assay: LNCaP, 22Rv1 and PC3 cells were plated at 3000 cells per well in RPMI1640 containing 5% CSS in a 96-well plate, treated with 0.1 nm R1881 (a synthetic androgen) and test compounds (0–25 μM) for 72 h. Cell proliferation was determined using the PrestoBlue^TM cell proliferation assay following incubation with the compound […] over 72 h. In brief, 30 μL of the PrestoBlue^TM reagent was added to cells in each well of the 96-well plate containing 200 μL of media and incubated for 60 min at 37 °C in 5% CO2. The production of […]. Fluorescence measurement was read on a TECAN F200.
(§2) We then evaluated the effect of VPC-220010 on the proliferation of androgen-dependent LNCaP and ARV7-dependent 22Rv1 cells.

A further data set deals with 22Rv1 cells. Briefly: Proliferation assay (PrestoBlue), 22Rv1. The data set is classed as cell-based. To be noted: Homo sapiens, 72 h, Figure 2D, read-out: IC50, viability of 22Rv1 cells. As to the method: as §1, §2

Source text for ARV7: The newly synthesized compounds were screened initially for their ability to inhibit ARV7 transcriptional activity using a cell based ARV7 transcriptional assay.

`O[C@@H](CCl)COc1cccc2c(OC[C@@H](O)CCl)cccc12` [RR-220010]: the IC50 in data set [1] is 0.7 µM; against ARV7 it was 5 µM; on full-length AR (Table 1, read-out: eGFP IC50), 0.7 µM. For the same compound, on ARV7, the “activity against ARV7 (in words)” value was “no difference in potency”. Also, in the data set “Microsomal stability” (human, microsomes), the half-life was 11 min.
Consider `OC(CCl)COc1ccc(Br)c2c(OCC(O)CCl)ccc(Br)c12` (stereo not drawn) [VPC-220028], for which the IC50 worked out at 0.4 µM in data set [1]; 3 µM at ARV7; 0.4 µM on full-length AR (Table 1, read-out: eGFP IC50).
Take `O=[N+]([O-])c1ccc2c(OCC(O)CCl)cccc2c1OCC(O)CCl` (stereo not drawn) [VPC-220054]: the IC50 in data set [1] amounted to 5 µM; against ARV7, 3 µM; on full-length AR (Table 1, read-out: eGFP IC50) it was 5 µM.
With `OC(CCl)COc1c(Br)ccc2c(OCC(O)CCl)c(Br)ccc12` (stereo not drawn) [VPC-220027], the IC50 came out at 4 µM in data set [1]; 4 µM on ARV7; 3 µM at full-length AR (Table 1, read-out: eGFP IC50).
Consider `CC#C[C@]1(O)CC[C@H]2[C@@H]3CCC4=CC(=O)CCC4=C3[C@@H](c3ccc(N(C)C)cc3)C[C@@]21C` [mifepristone], for which, in data set [2], the “PR transcriptional reporter activity” value is reported as “inhibited”. In addition, the “GR transcriptional reporter activity” value in data set [3] is “inhibited”.
As for `OC(CCl)CNc1cccc2c(NCC(O)CCl)cccc12` (stereo not drawn) [VPC-2055], the IC50 was 11.8 µM with LNCaP cells; 8.8 µM against ARV7; 1 µM at full-length AR (LNCaP cells, read-out: IC50, full length AR, AR-eGFP transcription assay); > 50 µM with 22Rv1 cells. Besides, the “activity against ARV7 (in words)” value on ARV7 was “active against this truncated variant”.
With `O[C@H](CCl)COc1cccc2c(OC[C@H](O)CCl)cccc12` [SS-220010], the IC50 was found to be 0.6 µM in data set [1]; 6 µM against ARV7; 0.7 µM on full-length AR (Table 1, read-out: eGFP IC50). The “activity against ARV7 (in words)” value at ARV7 was “no difference in potency”. The compound further registered a half-life in “Microsomal stability” (human, microsomes) of 12 min.
With `OC(CCl)COc1ccc2cc(OCC(O)CCl)ccc2c1` (stereo not drawn) [VPC-220075], the IC50 in data set [1] amounted to 0.5 µM; on ARV7, 12 µM; at full-length AR (Table 1, read-out: eGFP IC50) it was 0.5 µM. The same compound came in with a half-life in “Microsomal stability” (human, microsomes) of 18 min.
Consider `O=[N+]([O-])c1ccc(OCC(O)CCl)c2c([N+](=O)[O-])ccc(OCC(O)CCl)c12` (stereo not drawn) [VPC-220057], for which the IC50 in data set [1] came out at 8 µM; on ARV7 it was 8 µM; on full-length AR (Table 1, read-out: eGFP IC50) it was 10 µM. On full-length AR (Table 1), the “fold less potent than VPC-220010” value came out at 10 fold. For the same compound, the half-life in the data set “Microsomal stability” (microsomal stability, human microsomes, read-out: T1/2) is 462 min.
Take `OC(CCl)COc1ccc(Br)c2c(OCC(O)CCl)cccc12` (stereo not drawn) [VPC-220062]: the IC50 worked out at 0.5 µM in data set [1]; 3 µM against ARV7; 0.5 µM at full-length AR (Table 1, read-out: eGFP IC50). The same compound gave a half-life in “Microsomal stability” (human, microsomes) of 36 min.
